{"source": "patent US7750003B2", "about": "“Compounds-943” (AstraZeneca AB, priority 2006, dated 2010)", "data": [{"target": "recombinant mTOR (FLAG-tagged, residues 1362-2549) (Homo sapiens, UniProt P42345)", "sequence (P42345 1362-2549)": "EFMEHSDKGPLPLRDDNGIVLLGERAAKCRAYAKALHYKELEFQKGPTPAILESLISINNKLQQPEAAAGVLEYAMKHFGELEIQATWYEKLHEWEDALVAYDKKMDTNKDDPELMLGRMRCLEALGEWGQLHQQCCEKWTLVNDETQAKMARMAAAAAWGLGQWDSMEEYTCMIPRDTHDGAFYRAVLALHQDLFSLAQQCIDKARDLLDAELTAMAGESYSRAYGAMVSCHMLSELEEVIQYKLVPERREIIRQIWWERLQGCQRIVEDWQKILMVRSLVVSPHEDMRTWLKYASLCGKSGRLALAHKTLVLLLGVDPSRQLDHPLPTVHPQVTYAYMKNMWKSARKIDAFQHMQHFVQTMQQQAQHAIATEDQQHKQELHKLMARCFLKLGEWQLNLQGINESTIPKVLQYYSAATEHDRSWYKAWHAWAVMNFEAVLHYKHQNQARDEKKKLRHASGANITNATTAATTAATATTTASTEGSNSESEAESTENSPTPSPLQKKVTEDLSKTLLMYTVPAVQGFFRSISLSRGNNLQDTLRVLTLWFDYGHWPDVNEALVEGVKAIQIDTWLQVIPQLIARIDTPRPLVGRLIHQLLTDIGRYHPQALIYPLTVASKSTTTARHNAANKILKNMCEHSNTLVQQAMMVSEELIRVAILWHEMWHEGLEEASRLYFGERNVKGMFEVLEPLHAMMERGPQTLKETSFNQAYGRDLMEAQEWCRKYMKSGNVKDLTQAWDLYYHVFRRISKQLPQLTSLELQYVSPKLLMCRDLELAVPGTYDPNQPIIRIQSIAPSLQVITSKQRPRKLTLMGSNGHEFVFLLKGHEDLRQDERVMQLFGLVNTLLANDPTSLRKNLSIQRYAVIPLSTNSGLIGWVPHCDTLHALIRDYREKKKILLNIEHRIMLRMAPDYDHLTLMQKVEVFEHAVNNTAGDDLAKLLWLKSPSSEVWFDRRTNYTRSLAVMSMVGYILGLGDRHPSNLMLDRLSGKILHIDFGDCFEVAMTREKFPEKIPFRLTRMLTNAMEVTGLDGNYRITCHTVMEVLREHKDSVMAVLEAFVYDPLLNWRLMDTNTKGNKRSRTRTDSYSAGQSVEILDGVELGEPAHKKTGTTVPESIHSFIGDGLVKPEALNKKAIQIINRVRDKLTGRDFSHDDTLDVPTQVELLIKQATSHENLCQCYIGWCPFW", "test": "In vitro mTOR kinase assay (Test (a), AlphaScreen)", "type": "biochemical", "conditions": "ATP 20 μM, read-out: Test (a): IC50 versus mTOR kinase", "summary_of_the_method": "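AlphaScreen read-out: a phospho-T389 p70 S6K antibody on acceptor beads captures the phosphorylated biotin-peptide on donor beads, with signal loss indicating inhibition.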", "units": {"IC50": "nM"}, "values": [{"compound": "CNC(=O)Nc1ccc(-c2nc(CS(=O)(=O)c3nc(C)cs3)cc(N3CCOC[C@@H]3C)n2)cc1", "note": "[Example 33h, 3-methyl-1-[4-[4-[(3S)-3-methylmorpholin-4-yl]-6-[(4-methyl-1,3-thiazol-2-yl)sulfonylmethyl]pyrimidin-2-yl]phenyl]urea]", "IC50": 48}, {"compound": "CS(=O)(=O)Cc1cc(N2CCOCC2)nc(-c2ccc(NC(N)=O)cc2)n1", "note": "[Example 34, [4-[4-(Methylsulfonylmethyl)-6-morpholin-4-yl-pyrimidin-2-yl]phenyl]urea]", "IC50": 210}, {"compound": "CS(=O)(=O)Cc1cc(N2CCOCC2)nc(-c2ccc(NC(=O)Nc3ccon3)cc2)n1", "note": "[Example 34a, 1-[4-[4-(methylsulfonylmethyl)-6-morpholin-4-yl-pyrimidin-2-yl]phenyl]-3-(1,2-oxazol-3-yl)urea]", "IC50": 42}, {"compound": "Cn1ccc(NC(=O)Nc2ccc(-c3nc(CS(C)(=O)=O)cc(N4CCOCC4)n3)cc2)n1", "note": "[Example 34c, 1-(1-methylpyrazol-3-yl)-3-[4-[4-(methylsulfonylmethyl)-6-morpholin-4-yl-pyrimidin-2-yl]phenyl]urea]", "IC50": 720}, {"compound": "CC(CO)NC(=O)Nc1ccc(-c2nc(CS(C)(=O)=O)cc(N3CCOC[C@@H]3C)n2)cc1", "note": "(stereo partly drawn) [Example 35, 3-(1-Hydroxypropan-2-yl)-1-[4-[4-[(3S)-3-methylmorpholin-4-yl]-6-(methylsulfonylmethyl)pyrimidin-2-yl]phenyl]urea]", "IC50": 64}, {"compound": "C[C@H]1COCCN1c1cc(CS(C)(=O)=O)nc(-c2ccc(NC(=O)NCCCN(C)C)cc2)n1", "note": "[Example 35a, 3-(3-dimethylaminopropyl)-1-[4-[4-[(3S)-3-methylmorpholin-4-yl]-6-(methylsulfonylmethyl)pyrimidin-2-yl]phenyl]urea]", "IC50": 6400}, {"compound": "COCCCNC(=O)Nc1ccc(-c2nc(CS(C)(=O)=O)cc(N3CCOC[C@@H]3C)n2)cc1", "note": "[Example 35b, 3-(3-methoxypropyl)-1-[4-[4-[(3S)-3-methylmorpholin-4-yl]-6-(methylsulfonylmethyl)pyrimidin-2-yl]phenyl]urea]", "IC50": 420}, {"compound": "C[C@H]1COCCN1c1cc(CS(C)(=O)=O)nc(-c2ccc(NC(=O)N3CCCC3)cc2)n1", "note": "[Example 35c, N-[4-[4-[(3S)-3-methylmorpholin-4-yl]-6-(methylsulfonylmethyl)pyrimidin-2-yl]phenyl]pyrrolidine-1-carboxamide]", "IC50": 3400}, {"compound": "C[C@H]1COCCN1c1cc(CS(C)(=O)=O)nc(-c2ccc(NC(=O)N3CCOCC3)cc2)n1", "note": "[Example 35d, N-[4-[4-[(3S)-3-methylmorpholin-4-yl]-6-(methylsulfonylmethyl)pyrimidin-2-yl]phenyl]morpholine-4-carboxamide]", "IC50": 3200}, {"compound": "C[C@H]1COCCN1c1cc(CS(C)(=O)=O)nc(-c2ccc(NC(=O)N3CCC(O)CC3)cc2)n1", "note": "[Example 35e, 4-hydroxy-N-[4-[4-[(3S)-3-methylmorpholin-4-yl]-6-(methylsulfonylmethyl)pyrimidin-2-yl]phenyl]piperidine-1-carboxamide]", "IC50": 2500}, {"compound": "C[C@H]1COCCN1c1cc(CS(C)(=O)=O)nc(-c2ccc(NC(=O)NC(C)(C)C)cc2)n1", "note": "[Example 35f, 1-[4-[4-[(3S)-3-methylmorpholin-4-yl]-6-(methylsulfonylmethyl)pyrimidin-2-yl]phenyl]-3-tert-butyl-urea]", "IC50": 820}, {"compound": "C[C@H]1COCCN1c1cc(CS(C)(=O)=O)nc(-c2ccc(NC(=O)N3CCCC(O)C3)cc2)n1", "note": "(stereo partly drawn) [Example 35i, 3-hydroxy-N-[4-[4-[(3S)-3-methylmorpholin-4-yl]-6-(methylsulfonylmethyl)pyrimidin-2-yl]phenyl]piperidine-1-carboxamide]", "IC50": 770}, {"compound": "C[C@H]1COCCN1c1cc(CS(C)(=O)=O)nc(-c2ccc(NC(=O)N(C)CCN(C)C)cc2)n1", "note": "[Example 35j, 1-(2-dimethylaminoethyl)-1-methyl-3-[4-[4-[(3S)-3-methylmorpholin-4-yl]-6-(methylsulfonylmethyl)pyrimidin-2-yl]phenyl]urea]", "IC50": 3600}, {"compound": "C[C@H]1COCCN1c1cc(CS(C)(=O)=O)nc(-c2ccc(NC(=O)NCCN3CCOCC3)cc2)n1", "note": "[Example 35k, 1-[4-[4-[(3S)-3-methylmorpholin-4-yl]-6-(methylsulfonylmethyl)pyrimidin-2-yl]phenyl]-3-(2-morpholin-4-ylethyl)urea]", "IC50": 1200}, {"compound": "C[C@H]1COCCN1c1cc(CS(C)(=O)=O)nc(-c2ccc(NC(=O)NCc3ncc[nH]3)cc2)n1", "note": "[Example 35l, 3-(1H-imidazol-2-ylmethyl)-1-[4-[4-[(3S)-3-methylmorpholin-4-yl]-6-(methylsulfonylmethyl)pyrimidin-2-yl]phenyl]urea]", "IC50": 470}, {"compound": "C[C@H]1COCCN1c1cc(CS(C)(=O)=O)nc(-c2ccc(NC(=O)N(C)C3CC3)cc2)n1", "note": "[Example 35m, 1-cyclopropyl-1-methyl-3-[4-[4-[(3S)-3-methylmorpholin-4-yl]-6-(methylsulfonylmethyl)pyrimidin-2-yl]phenyl]urea]", "IC50": 2000}, {"compound": "C[C@H]1COCCN1C(=O)Nc1ccc(-c2nc(CS(C)(=O)=O)cc(N3CCOC[C@@H]3C)n2)cc1", "note": "[Example 35n, (3S)-3-methyl-N-[4-[4-[(3S)-3-methylmorpholin-4-yl]-6-(methylsulfonylmethyl)pyrimidin-2-yl]phenyl]morpholine-4-carboxamide]", "IC50": 1100}, {"compound": "C[C@H]1COCCN1C(=O)c1cc(N2CCOC[C@@H]2C)nc(-c2ccc(NC(=O)NC3CC3)cc2)n1", "note": "[Example 36, 3-Cyclopropyl-1-[4-[4-[(3S)-3-methylmorpholine-4-carbonyl]-6-[(3S)-3-methylmorpholin-4-yl]pyrimidin-2-yl]phenyl]urea]", "IC50": 62}, {"compound": "C[C@H]1COCCN1c1cc(C(=O)NC2CC2)nc(-c2ccc(NC(=O)NC3CC3)cc2)n1", "note": "[Example 36a, N-cyclopropyl-2-[4-(cyclopropylcarbamoylamino)phenyl]-6-[(3S)-3-methylmorpholin-4-yl]pyrimidine-4-carboxamide]", "IC50": 2900}, {"compound": "C[C@H]1COCCN1c1cc(C(=O)N2CCN(C)CC2)nc(-c2ccc(NC(=O)NC3CC3)cc2)n1", "note": "[Example 36b, 3-cyclopropyl-1-[4-[4-[(3S)-3-methylmorpholin-4-yl]-6-(4-methylpiperazine-1-carbonyl)pyrimidin-2-yl]phenyl]urea]", "IC50": 180}, {"compound": "C[C@H]1COCCN1c1cc(C(C)(C)O)nc(-c2ccc(NC(=O)NC3CC3)cc2)n1", "note": "[Example 37, 3-Cyclopropyl-1-[4-[4-(2-hydroxypropan-2-yl)-6-[(3S)-3-methylmorpholin-4-yl]pyrimidin-2-yl]phenyl]urea]", "IC50": 51}, {"compound": "C[C@H]1COCCN1c1cc(C(C)(C)O)nc(-c2ccc(NC(=O)NCc3cnn(C)c3)cc2)n1", "note": "[Example 38, 1-[4-[4-(2-Hydroxypropan-2-yl)-6-[(3S)-3-methylmorpholin-4-yl]pyrimidin-2-yl]phenyl]-3-[(1-methylpyrazol-4-yl)methyl]urea]", "IC50": 1300}, {"compound": "C[C@H]1COCCN1c1cc(CO)nc(-c2ccc(NC(=O)Nc3ccon3)cc2)n1", "note": "[Example 39, 1-[4-[4-(Hydroxymethyl)-6-[(3S)-3-methylmorpholin-4-yl]pyrimidin-2-yl]phenyl]-3-(1,2-oxazol-3-yl)urea]", "IC50": 75}, {"compound": "C[C@H]1COCCN1c1cc(CO)nc(-c2ccc(NC(=O)NC3CC3)cc2)n1", "note": "[Example 42, 3-Cyclopropyl-1-[4-[4-(hydroxymethyl)-6-[(3S)-3-methylmorpholin-4-yl]pyrimidin-2-yl]phenyl]urea]", "IC50": 190}]}]}
